Tested on: ABCA-1
Assay: Measurement of ABCA-1 protein expression (western blot) in liver of treated ZDF rats
Assay type: in vivo, ZDF (Zucker diabetic fatty) rats
Settings: treated at 0, 2 and 4 hrs, western blot quantitated by densitometry, normalized to time-point vehicle controls, time-course (FIG. 2)
Procedure: FIG. 2 illustrates the time-course of the effect of treatment on hepatic ABCA1 protein expression in ZDF rats. Rats were treated with a test compound of Formula I at 0, 2 and 4 hrs. […] ABCA1 protein expression was measured by western blot and quantitated by densitometry, Time-point vehicle controls were used to normalize ABCA1 expression at each time-point.
Cellular ABCA-1 protein expression in cells or tissues were quantitated from homogenates prepared from tissue or cells homogenized in a lysis buffer containing protease inhibitors. Lysate proteins were separated by SDS-PAGE and western blotted for ABCA11 and a housekeeping protein. ABCA-1 was detected with a mouse monoclonal antibody that cross-reacts with human, rat and mouse. β-Actin (or other commonly used normalization proteins) were detected with the appropriate commercial antibody. Using the described assay, the effect of treatment on hepatic ABCA1 protein expression in ZDF rats was determined. Rats were treated with a test compound of Formula I at 0, 2 and 4 hrs. […] Time-point vehicle controls were used to normalize ABCA1 expression at each time-point. The test compound of Formula I used in the experiments of FIG. 2 was 2-{6-[((1R,2R)-2-hydroxycyclopentyl)amino]purin-9-yl}(4S,5S,2R,3R)-5-[(2-fluorophenylthio)methyl]oxolane-3,4-diol.

Q: How did the “hepatic ABCA1 protein expression” value turn out when `O[C@@H]1[C@H](O)[C@@H](CSc2ccccc2F)O[C@H]1n1cnc2c(N[C@@H]3CCC[C@H]3O)ncnc21` [2-{6-[((1R,2R)-2-hydroxycyclopentyl)amino]purin-9-yl}(4S,5S,2R,3R)-5-[(2-fluorophenylthio)methyl]oxolane-3,4-diol] was run?
A: The value was “increases ABCA-1 protein expression with time”.
